Results from publication PMC6260619, “Selective Cytotoxicity of Goniothalamin against Hepatoblastoma HepG2 Cells” (Molecules, 2011).
Like-named read-outs stand apart in the source and are kept apart here.

Experiments:
Format in all cases: cell-based, human
HepG2 cells [1] = assay: MTT cytotoxicity assay, HepG2; conditions: Homo sapiens, read-out: IC50 from MTT
Method: (§1) HepG2 and Chang cells were plated at 1 × 10^4 cells/well by adding 200 μL of a 5 × 10^4 cells/mL suspension to each well of a 96-well tissue culture plate. The plate was incubated for a sufficient time to assure attachment and 40% to 60% confluency. […] The last row was left as an untreated control. The plates were incubated at 37 °C, 5% CO2, for 24, 48 and 72 hours, respectively. After incubation with compounds, the media was aspirated off and replaced with fresh media. Then, MTT solution (20 μL) for a total volume of 200 μL was added in every well and incubated for 4 to 6 hours at 37 °C with 5% CO2. After that, MTT-containing medium was removed gently and replaced with DMSO (200 μL per well) to mix the formazan crystals until dissolved. The plates were read on microtiter plate reader at 570 nm. For each compound tested, the IC50 (concentration of drug needed to inhibit cell growth by 50%) is generated from the dose-response curves for each cell line.

Chang cells [2] = assay: MTT cytotoxicity assay, Chang; conditions: Homo sapiens, read-out: IC50 from MTT
Method: as §1

HepG2 cells [3] = assay: Cell cycle PI analysis by flow cytometry, HepG2
Method: The ability of a substance to affect specific phases of the cell cycle may provide clues as to its mechanism(s) of action. To determine the effects of goniothalamin on the cell cycle, HepG2 cells were treated with IC50 levels of goniothalamin (determined from the MTT assay) for 24, 48 and 72 hours, respectively. The cells were stained with PI and the DNA contents analyzed by flow cytometry.
(§2) The treated cells were trypsinized and washed with PBS. After centrifugation, the supernatant was removed. Then, 1 × 10^6 cells were harvested and fixed in ice-cold ethanol (70%). The fixed cells were centrifuged at high speed (180 × g) for 10 minutes to adequately pellet down the cells that were suspended in the ethanol. The pellet was washed by the ice-cold PBS and then centrifuged again at 180 × g for 10 minutes. The final pellet was resuspended with 1 mL of RNase and incubated at 37 °C for 30 minutes. At the end of incubation, DNA binding dye PI (1 mg/mL) was added to give a final concentration of 50 µg/mL. The mixture was incubated at room temperature for 10 min in the dark. Data acquisition and analysis were performed in by flow cytometry FACS Calibur flow cytometer (Becton Dickinson, Franklin Lakes, NJ, USA) using CellQuest 3.3 software.

Chang cells [4] = assay: Cell cycle PI analysis by flow cytometry, Chang
Method: The effect of goniothalamin on the cell cycle distribution of non-malignant Chang cells was also assessed. […] Accordingly, goniothalamin induced a marked apoptosis in a time-dependent manner at IC50 concentrations. As expected, the increase in the apoptotic population was associated with a concomitant enlargement of the pre-phase population, as observed in cell cycle analysis.
as §2

[5] = HepG2, 24h, at IC50 (goniothalamin 9.2 µM; doxorubicin 2.2 µM)
[6] = HepG2, 48h, at IC50 (goniothalamin 8.3 µM; doxorubicin 4.3 µM)
[7] = HepG2, 72h, at IC50 (goniothalamin 4.6 µM; doxorubicin […])
[8] = 24h, at IC50 (goniothalamin 79.10 µM; doxorubicin 0.83 µM)
[9] = 48h, at IC50 (goniothalamin 63.75 µM; doxorubicin 0.41 µM)
[10] = 72h, at IC50 (goniothalamin 35.01 µM; doxorubicin 0.28 µM)

For `COc1cccc2c1C(=O)c1c(O)c3c(c(O)c1C2=O)C[C@@](O)(C(=O)CO)C[C@@H]3O[C@H]1C[C@H](N)[C@H](O)[C@H](C)O1` [Doxorubicin, reference compound], the IC50 (HepG2 cells [1]; HepG2, 24 h) was 2200 nM, the IC50 (HepG2 cells [1]; HepG2, 48 h) was 4300 nM and the IC50 (HepG2 cells [1]; HepG2, 72 h) was 1060 nM. The IC50 (Chang cells [2]; 24 h) was 830 nM, the IC50 (Chang cells [2]; 48 h) was 410 nM and the IC50 (Chang cells [2]; 72 h) was 280 nM. The G0/G1 (HepG2 cells [3]; [5]) was 76.46 ± 3.80%, the “G2+M” value (HepG2 cells [3]; [5]) was 11.64 ± 3.02% and the S (HepG2 cells [3]; [5]) was 8.54 ± 0.38%. The SubG0/G1 (HepG2 cells [3]; [5]) was 3.36 ± 1.02%, the G0/G1 (HepG2 cells [3]; [6]) was 65.17 ± 12.80% and the S (HepG2 cells [3]; [6]) was 15.15 ± 10.96%. The SubG0/G1 (HepG2 cells [3]; [6]) was 5.14 ± 2.53%, the G0/G1 (HepG2 cells [3]; [7]) was 60.64 ± 0.79% and the “G2+M” value (HepG2 cells [3]; [7]) was 2.66 ± 0.37%. For the same molecule, the S (HepG2 cells [3]; [7]) was 5.91 ± 0.15%, the SubG0/G1 (HepG2 cells [3]; [7]) was 30.79 ± 0.57% and the G0/G1 (Chang cells [4]; [8]) was 50.84 ± 6.03%. For the same molecule, the “G2+M” value (Chang cells [4]; [8]) was 16.36 ± 1.28%, the S (Chang cells [4]; [8]) was 22.09 ± 0.03% and the SubG0/G1 (Chang cells [4]; [8]) was 10.71 ± 7.28%. The G0/G1 (Chang cells [4]; [9]) was 62.43 ± 9.80%, the “G2+M” value (Chang cells [4]; [9]) was 10.37 ± 0.21% and the S (Chang cells [4]; [9]) was 15.31 ± 3.10%. The SubG0/G1 (Chang cells [4]; [9]) was 11.89 ± 6.49%, the G0/G1 (Chang cells [4]; [10]) was 54.12 ± 1.52% and the “G2+M” value (Chang cells [4]; [10]) was 8.63 ± 2.17%. The S (Chang cells [4]; [10]) was 15.19 ± 2.83% and the SubG0/G1 (Chang cells [4]; [10]) was 22.06 ± 5.17%.
